26 compounds from US20100080770A1, “Hepatitis C Virus Inhibitors” (priority 2008, published 2010) can be followed below.

What is called IC50 is the point on the concentration scale where inhibition reaches its midpoint.

The target of the first assay is T1, HCV NS3/4A protease complex (Hepatitis C virus genotype 1a, UniProt P27958, C1454S/C1711G).
T1 construct: recombinant HCV NS3/4A protease complex (amino acids 1027 to 1711); inferred from the pET21b vector and Ni-NTA purification; made in house; host or cells: Escherichia coli BL21 (DE3)
T1 sequence (P27958 1027-1711 C1454S/C1711G, one chain of several): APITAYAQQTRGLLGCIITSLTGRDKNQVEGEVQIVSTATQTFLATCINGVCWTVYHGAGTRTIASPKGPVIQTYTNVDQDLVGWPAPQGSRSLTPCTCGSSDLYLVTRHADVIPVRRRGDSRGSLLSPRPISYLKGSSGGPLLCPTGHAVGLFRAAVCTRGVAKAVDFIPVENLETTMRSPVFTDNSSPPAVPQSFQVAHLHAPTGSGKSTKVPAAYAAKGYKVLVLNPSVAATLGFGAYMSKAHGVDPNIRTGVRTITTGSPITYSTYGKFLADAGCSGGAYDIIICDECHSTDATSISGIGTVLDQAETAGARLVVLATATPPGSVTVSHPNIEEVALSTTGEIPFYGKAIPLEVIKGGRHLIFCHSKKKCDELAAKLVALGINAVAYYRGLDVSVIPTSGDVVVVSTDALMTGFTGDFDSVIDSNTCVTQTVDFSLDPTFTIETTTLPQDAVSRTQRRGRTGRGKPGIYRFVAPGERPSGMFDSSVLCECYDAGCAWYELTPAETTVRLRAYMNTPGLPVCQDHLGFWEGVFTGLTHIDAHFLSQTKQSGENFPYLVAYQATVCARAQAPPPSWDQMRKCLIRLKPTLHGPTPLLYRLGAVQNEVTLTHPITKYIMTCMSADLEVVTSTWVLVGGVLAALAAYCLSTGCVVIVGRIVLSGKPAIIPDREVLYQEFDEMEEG
Description: FRET peptide assay to monitor HCV NS3/4A proteolytic activity. Format: biochemical.
Settings: not given
The source says: HCV NS3 protease complexes, derived from the BMS strain, H77 strain or J4L6S strain, were generated, as described below. These purified recombinant proteins were generated for use in a homogeneous assay (see below) to provide an indication of how effective compounds of the present disclosure would be in inhibiting HCV NS3 proteolytic activity.
The H77 and J4L6S strains were used for production of recombinant NS3/4A protease complexes. DNA encoding the recombinant HCV NS3/4A protease complex (amino acids 1027 to 1711) for these strains was manipulated as described by P. Gallinari et al. (see Gallinari P, Paolini C, Brennan D, Nardi C, Steinkuhler C, De Francesco R. Biochemistry. 38(17):5620-32, (1999)). Briefly, a three-lysine solubilizing tail was added at the 3′-end of the NS4A coding region. The cysteine in the P1 position of the NS4A-NS4B cleavage site (amino acid 1711) was changed to a glycine to avoid the proteolytic cleavage of the lysine tag. Furthermore, a cysteine to serine mutation was introduced by PCR at amino acid position 1454 to prevent the autolytic cleavage in the NS3 helicase domain. The variant DNA fragment was cloned in the pET21b bacterial expression vector (Novagen) and the NS3/4A complex was expressed in Escherichia coli strain BL21 (DE3) (Invitrogen) following the protocol described by P. Gallinari et al. (see Gallinari P, Brennan D, Nardi C, Brunetti M, Tomei L, Steinkuhler C, De Francesco R., J Virol. 72(8):6758-69 (1998)) with modifications. Briefly, the NS3/4A protease complex expression was induced with 0.5 millimolar (mM) Isopropyl β-D-1-thiogalactopyranoside (IPTG) for 22 hours (h) at 20° C. A typical fermentation (1 Liter (L)) yielded approximately 10 grams (g) of wet cell paste. The cells were resuspended in lysis buffer (10 mL/g) consisting of 25 mM N-(2-Hydroxyethyl)Piperazine-N′-(2-Ethane Sulfonic acid) (HEPES), pH 7.5, 20% glycerol, 500 mM Sodium Chloride (NaCl), 0.5% Triton X-100, 1 microgram/milliliter (“μg/mL”) lysozyme, 5 mM Magnesium Chloride (MgCl2), 1 μg/ml DnaseI, 5 mM β-Mercaptoethanol (βME), Protease inhibitor-Ethylenediamine Tetraacetic acid (EDTA) free (Roche), homogenized and incubated for 20 minutes (min) at 4° C. The homogenate was sonicated and clarified by ultra-centrifugation at 235000 g for 1 hour (h) at 4° C. Imidazole was added to the supernatant to a final concentration of 15 mM and the pH adjusted to 8.0. The crude protein extract was loaded on a Nickel-Nitrilotriacetic acid (Ni-NTA) column pre-equilibrated with buffer B (25 mM HEPES, pH 8.0, 20% glycerol, 500 mM NaCl, 0.5% Triton X-100, 15 mM imidazole, 5 mM βME). The sample was loaded at a flow rate of 1 ml/min. The column was washed with 15 column volumes of buffer C (same as buffer B except with 0.2% Triton X-100). The protein was eluted with 5 column volumes of buffer D (same as buffer C except with 200 mM Imidazole).
NS3/4A protease complex-containing fractions were pooled and loaded on a desalting column Superdex-S200 pre-equilibrated with buffer D (25mM HEPES, pH 7.5, 20% glycerol, 300 mM NaCl, 0.2% Triton X-100, 10 mM βME). Sample was loaded at a flow rate of 1 mL/min. NS3/4A protease complex-containing fractions were pooled and concentrated to approximately 0.5 mg/ml. The purity of the NS3/4A protease complexes, derived from the BMS, H77 and J4L6S strains, were judged to be greater than 90% by SDS-PAGE and mass spectrometry analyses. The enzyme was stored at −80° C., thawed on ice and diluted prior to use in assay buffer.
The purpose of this in vitro assay was to measure the inhibition of HCV NS3 protease complexes, derived from the BMS strain, H77 strain or J4L6S strain, as described above, by compounds of the present disclosure. This assay provides an indication of how effective compounds of the present disclosure would be in inhibiting HCV NS3 proteolytic activity.
In order to monitor HCV NS3/4A protease activity, an NS3/4A peptide substrate was used. […]
The compound `CO[C@@]12C[C@@H](C(=O)N[C@]3(C(=O)NS(=O)(=O)C4CC4)C[C@H]3C3CC3)N(C1)C(=O)[C@H](C(C)(C)C)NC(=O)OCCCCCCc1ccc3ccc2cc3c1` [Example 31] gave an IC50 of 1 to 10 nM.

The assay is the same for the next values; noted with them: HCV NS3/4A protease complex; strain not stated; class symbols; read-out: IC50.
As for `COc1cc2ccc3cc2cc1CCCC(C)(C)CCOC(=O)N[C@@H](C(C)C)C(=O)N1C[C@@]3(OC)C[C@H]1C(=O)N[C@]1(C(=O)NS(=O)(=O)C2CC2)C[C@H]1C1CC1` [Example 38], the IC50 lay in the range of 1 to 10 nM.
The same measure, in the same setting: the figure for `C=C[C@@H]1C[C@]1(NC(=O)[C@@H]1C[C@]2(OC)CN1C(=O)[C@H](C(C)(C)C)NC(=O)OCCCCCCc1cc2cc2ccccc12)C(=O)NS(=O)(=O)C1CC1` [Example 24] is 1 to 10 nM; for `COc1cc2ccc3cc2cc1CCCCCCCCOC(=O)N[C@@H](C(C)(C)C)C(=O)N1C[C@@]3(OC)C[C@H]1C(=O)N[C@]1(C(=O)NS(=O)(=O)C2CC2)C[C@H]1C1CC1` [Example 22] it is 1 to 10 nM; for `CO[C@@]12C[C@@H](C(=O)N[C@]3(C(=O)NS(=O)(=O)C4CC4)C[C@H]3C3CC3)N(C1)C(=O)[C@H](C(C)(C)C)NC(=O)OCCCCCCc1cc3cc2ccc3cc1N(C)C` [Example 30] it is 1 to 10 nM.
Same read-out and setting: the figure for `COCO[C@@]12C[C@@H](C(=O)N[C@]3(C(=O)NS(=O)(=O)C4CC4)C[C@H]3C3CC3)N(C1)C(=O)[C@H](C(C)(C)C)NC(=O)OCCC(C)(C)CCCc1cc3cc2ccc3cc1OC` [Example 28] is 1 to 10 nM; for `COc1c2cc3cc(ccc3c1Br)[C@]1(OC)C[C@@H](C(=O)N[C@]3(C(=O)NS(=O)(=O)C4CC4)C[C@H]3C3CC3)N(C1)C(=O)[C@H](C(C)(C)C)NC(=O)OCCC(C)(C)CCC2` [Example 33] it is 11 to 12 nM; for `COc1cc2ccc3cc2cc1CCCCCCOC(=O)N[C@@H](C(C)(C)C)C(=O)N1C[C@@]3(O)C[C@H]1C(=O)N[C@]1(C(=O)NS(=O)(=O)C2CC2)C[C@H]1C1CC1` [Example 26] it is 1 to 10 nM.
As to `C=C[C@@H]1C[C@]1(NC(=O)[C@@H]1C[C@]2(OC)CN1C(=O)[C@H](C(C)(C)C)NC(=O)OCCCCCCCCc1cc3cc2ccc3cc1OC)C(=O)NS(=O)(=O)C1CC1` [Example 23], the IC50 fell in the range of 1 to 10 nM.
The same measure, in the same setting: the figure for `COc1cc2ccc3cc2cc1CCCC(C)(C)CCOC(=O)N[C@@H](C1CCOCC1)C(=O)N1C[C@@]3(OC)C[C@H]1C(=O)N[C@]1(C(=O)NS(=O)(=O)C2CC2)C[C@H]1C1CC1` [Example 39] is 1 to 10 nM; for `COc1cc2ccc3cc2cc1CCCC(C)(C)CCOC(=O)N[C@@H](C(C)(C)C)C(=O)N1C[C@@]3(OC(=O)N(C)C)C[C@H]1C(=O)N[C@]1(C(=O)NS(=O)(=O)C2CC2)C[C@H]1C1CC1` [Example 27] it is 1 to 10 nM.
On the same count and under the same terms, the figure for `COc1cc2ccc3cc2cc1CCCC(C)(C)CCNC(=O)N[C@@H](C(C)(C)C)C(=O)N1C[C@@]3(OC)C[C@H]1C(=O)N[C@]1(C(=O)NS(=O)(=O)C2CC2)C[C@H]1C1CC1` [Example 40] is 1 to 10 nM; for `COc1cc2ccc3cc2cc1CCCCCCCOC(=O)N[C@@H](C(C)(C)C)C(=O)N1C[C@@]3(OC)C[C@H]1C(=O)N[C@]1(C(=O)NS(=O)(=O)C2CC2)C[C@H]1C1CC1` [Example 21] it is 21 to 3200 nM.
On the same count and under the same terms, the figure for `COc1cc2ccc3cc2cc1CCCCCOC(=O)N[C@@H](C(C)(C)C)C(=O)N1C[C@@]3(OC)C[C@H]1C(=O)N[C@]1(C(=O)NS(=O)(=O)C2CC2)C[C@H]1C1CC1` [Example 6] is 1 to 10 nM; for `COc1cc2ccc3cc2cc1CCCCCCCC(=O)N[C@@H](C(C)(C)C)C(=O)N1C[C@@]3(OC)C[C@H]1C(=O)N[C@]1(C(=O)NS(=O)(=O)C2CC2)C[C@H]1C1CC1` [Example 41] it is 1 to 10 nM; for `C=C[C@@H]1C[C@]1(NC(=O)[C@@H]1C[C@]2(OC)CN1C(=O)[C@H](C(C)(C)C)NC(=O)OCCCCCc1cc3cc2ccc3cc1OC)C(=O)NS(=O)(=O)C1CC1` [Example 5] it is 1 to 10 nM.
As for `COc1cc2ccc3cc2cc1CCCCOC(=O)N[C@@H](C(C)(C)C)C(=O)N1C[C@@]3(OC)C[C@H]1C(=O)N[C@]1(C(=O)NS(=O)(=O)C2CC2)C[C@H]1C1CC1` [Example 2], the IC50 was in the range of 11 to 12 nM.
Consider `COc1ccc2ccc3cc2c1CCCCCOC(=O)N[C@@H](C(C)(C)C)C(=O)N1C[C@@]3(OC)C[C@H]1C(=O)N[C@]1(C(=O)NS(=O)(=O)C2CC2)C[C@H]1C1CC1` [Example 36], for which the IC50 was 21 to 3200 nM.
The same measure, in the same setting: the figure for `C=C[C@@H]1C[C@]1(NC(=O)[C@@H]1C[C@]2(OC)CN1C(=O)[C@H](C(C)(C)C)NC(=O)OCCCCCCCc1cc3cc2ccc3cc1OC)C(=O)NS(=O)(=O)C1CC1` [Example 20] is 11 to 12 nM; for `COc1ccc2ccc3cc2c1CCCCOC(=O)N[C@@H](C(C)(C)C)C(=O)N1C[C@@]3(OC)C[C@H]1C(=O)N[C@]1(C(=O)NS(=O)(=O)C2CC2)C[C@H]1C1CC1` [Example 37] it is 21 to 3200 nM; for `C=C[C@@H]1C[C@]1(NC(=O)[C@@H]1C[C@]2(OC)CN1C(=O)[C@H](C(C)(C)C)NC(=O)OCCCCc1cc3cc2ccc3cc1OC)C(=O)NS(=O)(=O)C1CC1` [Example 3] it is 1 to 10 nM.
Regarding `C=C[C@@H]1C[C@]1(NC(=O)[C@@H]1C[C@]2(OC)CN1C(=O)[C@H](C(C)(C)C)NC(=O)OCCCCCCc1cc3cc2ccc3cc1N(C)C)C(=O)NS(=O)(=O)C1CC1` [Example 29], the 50% inhibitory concentration (IC50) was 1 to 10 nM.

Staying with this assay, now noted: HCV NS3/4A protease complex; strain not stated; numeric values; read-out: IC50.
As to `C=C[C@@H]1C[C@]1(NC(=O)[C@@H]1C[C@]2(OC)CN1C(=O)[C@H](C(C)(C)C)NC(=O)OCCCCCc1cc2cc2ccccc12)C(=O)NS(=O)(=O)C1CC1` [Example 25], the IC50 was found to be 240 nM.
On to `COc1cc2ccc3cc2cc1CCCC1(CCOC(=O)N[C@@H](C(C)(C)C)C(=O)N2C[C@@]3(OC)C[C@H]2C(=O)N[C@]2(C(=O)NS(=O)(=O)C3CC3)C[C@H]2C2CC2)CC1` [Example 34], for which the IC50 amounted to 1 nM.
On the same count and under the same terms, the figure for `COc1c2cc3cc(ccc3c1Cl)[C@]1(OC)C[C@@H](C(=O)N[C@]3(C(=O)NS(=O)(=O)C4CC4)C[C@H]3C3CC3)N(C1)C(=O)[C@H](C(C)(C)C)NC(=O)OCCC(C)(C)CCC2` [Example 32] is 25 nM; for `COc1ccc2ccc3cc2c1CCCCCCOC(=O)N[C@@H](C(C)(C)C)C(=O)N1C[C@@]3(OC)C[C@H]1C(=O)N[C@]1(C(=O)NS(=O)(=O)C2CC2)C[C@H]1C1CC1` [Example 35] it is 413 nM.
